This is an account of results in paper PMC7663103, “Homo-Tris-Nitrones Derived from α-Phenyl-N-tert-butylnitrone: Synthesis, Neuroprotection and Antioxidant Properties” (International Journal of Molecular Sciences, 2020).

For the test, the target named is T1, soybean lipoxygenase (Glycine max, UniProt P08170).
T1 construct: gene LOX1.1
T1 sequence (P08170 1-839): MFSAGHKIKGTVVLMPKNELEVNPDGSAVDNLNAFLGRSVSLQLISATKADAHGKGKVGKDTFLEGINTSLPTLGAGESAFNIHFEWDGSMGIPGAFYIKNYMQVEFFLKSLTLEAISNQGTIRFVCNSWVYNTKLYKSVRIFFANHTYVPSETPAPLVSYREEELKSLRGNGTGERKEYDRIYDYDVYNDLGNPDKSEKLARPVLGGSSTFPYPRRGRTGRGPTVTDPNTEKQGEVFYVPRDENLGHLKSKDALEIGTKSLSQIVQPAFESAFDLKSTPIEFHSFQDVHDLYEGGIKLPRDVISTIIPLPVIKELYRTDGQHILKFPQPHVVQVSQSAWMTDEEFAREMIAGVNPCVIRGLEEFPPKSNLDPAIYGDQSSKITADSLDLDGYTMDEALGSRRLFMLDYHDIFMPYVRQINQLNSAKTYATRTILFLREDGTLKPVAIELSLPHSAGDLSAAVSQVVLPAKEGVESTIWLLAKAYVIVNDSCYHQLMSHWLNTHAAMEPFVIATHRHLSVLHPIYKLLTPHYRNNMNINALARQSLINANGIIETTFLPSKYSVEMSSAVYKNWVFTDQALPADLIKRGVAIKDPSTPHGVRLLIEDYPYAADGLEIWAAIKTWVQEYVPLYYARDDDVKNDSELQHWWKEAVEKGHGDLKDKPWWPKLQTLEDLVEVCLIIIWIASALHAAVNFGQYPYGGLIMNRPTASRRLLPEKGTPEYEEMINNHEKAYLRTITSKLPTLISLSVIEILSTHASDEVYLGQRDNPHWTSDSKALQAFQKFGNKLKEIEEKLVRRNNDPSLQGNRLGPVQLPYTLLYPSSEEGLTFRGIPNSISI
Nature of the test: UV assay of sodium linoleate conversion to 13-hydroperoxylinoleic acid at […] nm. The test is classed as biochemical. The following applies: read-out: LOX Inhibition (% or IC50 [μM]) (±SEM).

Molecules are shown by their SMILES.

As to `[O-]/[N+](=C\c1cc(/C=[N+](\[O-])Cc2ccccc2)cc(/C=[N+](\[O-])Cc2ccccc2)c1)Cc1ccccc1` [HTN3, (1. Z,1′Z,1″Z)-1,1′,1″-(Benzene-1,3,5-triyl)tris(N-benzylmethanimineoxide)], the IC50 was 70 ± 2.6 µM. The result for `C/[N+]([O-])=C/c1cc(/C=[N+](/C)[O-])cc(/C=[N+](/C)[O-])c1` [HTN1, (1. Z,1′Z,1″Z)-1,1′,1″-(Benzene-1,3,5-triyl)tris(N-methylmethanimineoxide)] reads 100 ± 1.1 µM.

Usually IC50 stands for the concentration at which inhibition is half-maximal.
